Data: US20240285785A1, “TARGETING SORTILIN” (priority 2022, published 2024)

Assay: Murine serum stability assay
Format: in vitro ADME, mouse (CD-1)
Conditions: male CD-1 mouse serum, 37° C.; for half-life: male, CD-1, mouse, mouse serum, read-out: Murine serum stability assay, T1/2
Experimental: Serum was drawn from male CD-1 mice by Pharmidex. Lyophilized peptides were solubilized in DMSO and then further diluted into male mouse (CD-1) serum at 37° C. in duplicates. The reaction was incubated at 37° C. and samples extracted at 6 time points: 0, 0.16, 0.5, 1, 3, and 6 hrs. Acetonitrile (ACN) with internal standard (tolbutamide) was added to stop the incubation. Samples were centrifuged, and the supernatant was analyzed by HPLC-MS/MS for the parent compound.

SMILES | half-life [min] | Murine serum stability assay, T1/2 (listed as Aro-SAR-Q15) [min]
CC(C)C[C@H](NC(=O)[C@H](C)NC(=O)[C@@H]1CCCN1C(=O)[C@H](CC(=O)O)NC(=O)[C@H](CCCNC(=N)N)NC(=O)[C@H](CC(C)C)NC(=O)[C@@H]1CCCN1C(=O)[C@H](C)NC(=O)[C@H](CC(=O)O)NC(=O)[C@H](Cc1c[nH]c2ccccc12)NC(=O)[C@H](CCCNC(=N)N)NC(=O)[C@@H]1CCCN1C(=O)[C@H](C)N)C(=O)N[C@@H](CCCNC(=N)N)C(=O)N[C@@H](CCC(N)=O)C(=O)N[C@@H](CC1CCC1)C(=O)N[C@@H](CC(C)(C)C)C(=O)O [Arb-SAR-P24] | 10.1 | –
CC(C)CC[C@H](NC(=O)[C@H](CCC(N)=O)NC(=O)[C@H](CCCNC(=N)N)NC(=O)[C@H](CC(C)C)NC(=O)[C@H](C)NC(=O)[C@@H]1CCCN1C(=O)[C@H](CC(=O)O)NC(=O)[C@H](CCCNC(=N)N)NC(=O)[C@H](CC(C)C)NC(=O)[C@@H]1CCCN1C(=O)[C@H](C)NC(=O)[C@H](CC(=O)O)NC(=O)[C@H](Cc1c[nH]c2ccccc12)NC(=O)[C@H](CCCNC(=N)N)NC(=O)[C@@H]1CCCN1C(=O)[C@H](C)N)C(=O)N[C@@H](CC(C)(C)C)C(=O)O [Arb-SAR-P17] | 12.8 | –
CC(C)C[C@H](NC(=O)[C@H](C)NC(=O)[C@@H]1CCCN1C(=O)[C@H](CC(=O)O)NC(=O)[C@H](CCCNC(=N)N)NC(=O)[C@H](CC(C)C)NC(=O)[C@@H]1CCCN1C(=O)[C@H](C)NC(=O)[C@H](CC(=O)O)NC(=O)[C@H](Cc1c[nH]c2ccccc12)NC(=O)[C@H](CCCNC(=N)N)NC(=O)[C@@H]1CCCN1C(=O)[C@H](C)N)C(=O)N[C@@H](CCCNC(=N)N)C(=O)N[C@@H](CCC(N)=O)C(=O)N[C@@H](CC(C)C)C(=O)N[C@@H](CC(C)(C)C)C(=O)O [Arb-SAR-J05] | 10.1 | –
CC(C)CC[C@H](NC(=O)[C@H](CCCNC(=N)N)NC(=O)[C@H](CC(C)C)NC(=O)[C@H](C)NC(=O)[C@@H]1CCCN1C(=O)[C@H](CC(=O)O)NC(=O)[C@H](CCCNC(=N)N)NC(=O)[C@H](CC(C)C)NC(=O)[C@@H]1CCCN1C(=O)[C@H](C)NC(=O)[C@H](CC(=O)O)NC(=O)[C@H](Cc1c[nH]c2ccccc12)NC(=O)[C@H](CCCNC(=N)N)NC(=O)[C@@H]1CCCN1C(=O)[C@H](C)N)C(=O)N[C@@H](CC(C)C)C(=O)N[C@@H](CC(C)C)C(=O)O [Arb-SAR-K01] | 13.8 | –
CC(C)C[C@H](NC(=O)[C@H](C)NC(=O)[C@@H]1CCCN1C(=O)[C@H](CC(=O)O)NC(=O)[C@H](CCCNC(=N)N)NC(=O)[C@H](CC(C)C)NC(=O)[C@@H]1CCCN1C(=O)[C@H](C)NC(=O)[C@H](CC(=O)O)NC(=O)[C@H](Cc1c[nH]c2ccccc12)NC(=O)[C@H](CCCNC(=N)N)NC(=O)[C@@H]1CCCN1C(=O)[C@H](C)N)C(=O)N[C@@H](CCCNC(=N)N)C(=O)N[C@@H](CCC(N)=O)C(=O)N[C@H](C(=O)N[C@@H](CC(C)(C)C)C(=O)O)C(C)(C)C [Arb-SAR-P23] | 12.7 | –
CC(C)C[C@H](NC(=O)[C@H](C)NC(=O)[C@@H]1CCCN1C(=O)[C@H](CC(=O)O)NC(=O)[C@H](CCCNC(=N)N)NC(=O)[C@H](CC(C)C)NC(=O)[C@@H]1CCCN1C(=O)[C@H](C)NC(=O)[C@H](CC(=O)O)NC(=O)[C@H](Cc1c[nH]c2ccccc12)NC(=O)[C@H](CCCNC(=N)N)NC(=O)[C@@H]1CCCN1C(=O)[C@H](C)N)C(=O)N[C@@H](CCCNC(=N)N)C(=O)N[C@@H](CCC(N)=O)C(=O)N[C@@H](CC(C)(C)C)C(=O)N[C@@H](CC(C)(C)C)C(=O)O [Arb-SAR-P22] | 9.96 | –

Further lines, results first:

half-life [min] | Murine serum stability assay, T1/2 (listed as Aro-SAR-Q15) [min] | SMILES
46.1 | – | CCCC[C@@H]1NC(=O)[C@@H](NC(=O)[C@H](CCC(N)=O)NC(=O)[C@H](C)NC(C)=O)CSSC[C@@H](C(=O)N[C@@H](CCCNC(=N)N)C(=O)N[C@@H](CCC(N)=O)C(=O)N[C@H](C(=O)N[C@@H](CC(C)(C)C)C(=O)O)C(C)(C)C)NC(=O)[C@H](C)NC(=O)[C@H](CCCNC(=N)N)NC(=O)[C@H](CC(N)=O)NC(=O)[C@H](CCCNC(=N)N)NC(=O)CNC1=O [Arb_cyclic_C5]
16.9 | 18.92 | CC(C)C[C@H](NC(=O)[C@H](C)NC(=O)[C@@H]1CCCN1C(=O)[C@H](CC(=O)O)NC(=O)[C@H](CCCNC(=N)N)NC(=O)[C@H](CC(C)C)NC(=O)[C@@H]1CCCN1C(=O)[C@H](C)NC(=O)[C@H](CC(=O)O)NC(=O)[C@H](Cc1c[nH]c2ccccc12)NC(=O)[C@H](CCCNC(=N)N)NC(=O)[C@@H]1CCCN1C(=O)[C@H](C)N)C(=O)N[C@@H](CCCNC(=N)N)C(=O)N[C@@H](CCC(N)=O)C(=O)N[C@H](C(=O)N[C@@H](CC1CCC1)C(=O)O)C(C)(C)C [Arb-SAR-Q15]
58.8 | – | CC(=O)N[C@@H](Cc1c[nH]cn1)C(=O)N[C@@H](CC(N)=O)C(=O)N[C@@H](Cc1ccccc1)C(=O)N[C@@H](Cc1ccc(O)cc1)C(=O)N[C@H]1CSSC[C@@H](C(=O)N[C@@H](CCC(N)=O)C(=O)N[C@@H](CCCNC(=N)N)C(=O)N[C@@H](CCC(N)=O)C(=O)N[C@H](C(=O)N[C@@H](CC(C)(C)C)C(=O)O)C(C)(C)C)NC(=O)[C@H](Cc2c[nH]cn2)NC(=O)[C@H](CCCCN)NC(=O)[C@H](CCCNC(=N)N)NC1=O [Arb_cyclic_C22]
95.2 | – | CCCC[C@@H]1NC(=O)[C@H](CCCNC(=N)N)NC(=O)[C@H](CC(C)C)NC(=O)[C@H](CO)NC(=O)[C@H](C(C)C)NC(=O)[C@@H](NC(=O)[C@H](CC(=O)O)NC(=O)[C@H](CCCNC(=N)N)NC(C)=O)CSSC[C@@H](C(=O)N[C@@H](CCCNC(=N)N)C(=O)N[C@@H](CCC(N)=O)C(=O)N[C@H](C(=O)N[C@@H](CC(C)(C)C)C(=O)O)C(C)(C)C)NC(=O)[C@H](C(C)C)NC(=O)[C@H](Cc2c[nH]cn2)NC1=O [Arb_cyclic_G5, RDCVSLR(Nle)HVCRQ(B13)(F02)]
38.5 | – | CC(=O)N[C@@H](CCCNC(=N)N)C(=O)N[C@@H](CC(=O)O)C(=O)N[C@H]1CSSC[C@@H](C(=O)N[C@@H](CCCNC(=N)N)C(=O)N[C@@H](CCC(N)=O)C(=O)N[C@H](C(=O)N[C@@H](CC(C)(C)C)C(=O)O)C(C)(C)C)NC(=O)[C@H](C(C)C)NC(=O)[C@H](CCCCN)NC(=O)[C@H](C)NC(=O)[C@H](CCCNC(=N)N)NC(=O)[C@H](CC(C)C)NC(=O)[C@H](CO)NC(=O)[C@@H]2CCCN2C1=O [Arb_cyclic_G4]
9.26 | – | CC[C@H](C)[C@@H]1NC(=O)[C@@H](NC(=O)CNC(=O)[C@H](CCCNC(=N)N)NC(C)=O)CSSC[C@@H](C(=O)N[C@@H](CCCNC(=N)N)C(=O)N[C@@H](CCC(N)=O)C(=O)N[C@H](C(=O)N[C@@H](CC(C)(C)C)C(=O)O)C(C)(C)C)NC(=O)[C@H](C)NC(=O)[C@H](CC(=O)O)NC(=O)[C@H](CCC(N)=O)NC(=O)[C@H](CCCNC(=N)N)NC(=O)[C@H](CCCNC(=N)N)NC(=O)[C@@H]2CCCN2C1=O [Arb_cyclic_G7]
11.4 | – | CC(C)CC[C@H](NC(=O)[C@H](CCC(N)=O)NC(=O)[C@H](CCCNC(=N)N)NC(=O)[C@H](CC(C)C)NC(=O)[C@H](C)NC(=O)[C@@H]1CCCN1C(=O)[C@H](CC(=O)O)NC(=O)[C@H](CCCNC(=N)N)NC(=O)[C@H](CC(C)C)NC(=O)[C@@H]1CCCN1C(=O)[C@H](C)NC(=O)[C@H](CC(=O)O)NC(=O)[C@H](Cc1c[nH]c2ccccc12)NC(=O)[C@H](CCCNC(=N)N)NC(=O)[C@@H]1CCCN1C(=O)[C@H](C)N)C(=O)N[C@@H](CC1CCC1)C(=O)O [Arb-SAR-Q09]
